One block for each compound: values may come before it. Square brackets hold non-standard residues; d marks the D form. Peptide text beside a SMILES is read from it. * marks the point of attachment. X1 = C[n+]1c(-c2ccc3c(c2)CCCN3CCCCCC(=O)*)sc2cc(Br)ccc21; dBip = N[C@H](Cc1ccc(-c2ccccc2)cc1)C(=O)O
Assays:
[1] = target: T1, angiotensin IV (Homo sapiens, UniProt P01019); assay: Selectivity of oxygenation reaction, angiotensin IV (Example 4); format: biochemical; parameters: unit not given here; details: compound (1a) 20 mmol %, light 1 hour, 37° C.
Text: (§1) Then, the reaction was monitored with a mass spectrometer (MALDI-TOF MS) or LC/MS (ESI-Q).

[2] = target: T2, Aβ1-42 (Homo sapiens, UniProt P05067); assay: Oxidation reaction of Aβ1-42 under LED irradiation (Example 3); format: biochemical
T2 sequence (P05067 672-713 limits assumed): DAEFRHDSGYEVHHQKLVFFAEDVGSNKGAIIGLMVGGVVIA
Procedure: as §1
(§2) The amino acid analysis of oxidized Aβ1-42 and oxidized amylin (carried out by Peptide Institute, Inc.) was conducted. The oxidized Aβ1-42 and the oxidized amylin were enzymatically digested with endopeptidase Lys-C and chymotrypsin, respectively, and the obtained digests were analyzed with a mass spectrometer (MALD-TOF MS) and LC/MS/MS (ESI-Q-TOF).

[3] = target: transthyretin (Homo sapiens, UniProt P02766); assay: Oxygenation reaction of transthyretin; format: biochemical
Text: (§3) The reaction was monitored with a mass spectrometer (MALDI-TOF MS).

[4] = target: T3, aggregated Aβ1-42 (Homo sapiens, UniProt P05067); assay: Increase of the intensity ratio of oxygenation of aggregated Aβ1-42 (Example 5); format: biochemical; details: Aβ1-42 incubated 0, 1, 3, 6 hours; light 10 minutes, room temperature
T3 sequence (P05067 672-713 limits assumed): as above
Procedure: (§4) Then, the reaction was monitored with a mass spectrometer (MALDI-TOF MS).
Increase of the intensity ratio of oxygenation (%) was calculated according to (Intensity ratio of oxygenation of aggregated Aβ1-42 (incubated at 37° C. for the predetermined time))−(Intensity ratio of oxygenation of aggregated Aβ1-42 (incubated at 37° C. for 0 hours)).
The intensity ratio of oxygenation (%) was calculated according to (Total intensity of oxygen adducts)/((Intensity of non-oxygen adduct (native))+(Total intensity of oxygen adducts)).

[5] = Absorption spectra; format: physicochemical
[6] = target: T4, amylin (Homo sapiens, UniProt P10997); assay: Oxidation reaction of amylin; format: biochemical
T4 construct: amylin, a hormone essential for glycemic control
T4 sequence (P10997 34-70 limits assumed): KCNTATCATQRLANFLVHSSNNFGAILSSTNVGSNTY
Procedure: as §1, §2

[7] = target: T1, angiotensin IV; assay: Oxidation reaction of angiotensin IV (Example 3); format: biochemical; details: light irradiation 1.5 hours, neutral buffer, 37° C.
Text: as §1

[8] = target: T2, Aβ1-42; assay: Fluorescence spectra in the presence or absence of Aβ1-42; format: binding; details: Aβ1-42 20 μM, 37° C., 3 hours
[9] = target: T5, Aβ1-42 oligomers (Homo sapiens, UniProt P05067); assay: Binding to Aβ1-42 oligomer by fluorescence assay (Example 6); details: 10 μM; oligomers prepared at 0° C. and room temperature, 24 hours
T5 sequence (P05067 672-713 limits assumed): as the sequence (P05067 672-713 limits assumed) above
Procedure: (2) Compound (1a) (10 μM) was added to each of solutions containing two types of Aβ1-42 oligomers (0.5 μM) prepared by the incubation of Aβ1-42 (20 μM) in a phosphate buffer solution (10 mM, pH 7.4) at 0° C. and room temperature, respectively, for 24 hours, followed by the measurement of the fluorescence intensity of compound (1a).

[10] = Singlet oxygen production in glycerol/water (furfuryl alcohol decrease); details: aqueous solution containing glycerol, light irradiation
Text: (§5) Then, the reaction was monitored with LC/MS (ESI-Q).

[11] = target: Aβ coexisting with angiotensin IV and methionine enkephalin (Homo sapiens, UniProt P05067); assay: Oxygenation with Aβ coexisting with angiotensin IV and methionine enkephalin; format: biochemical
Aβ coexisting with angiotensin IV and methionine enkephalin, sequence (P05067 672-713): as the sequence (P05067 672-713 limits assumed) above
Text: as §1

[12] = target: T6, insulin (Homo sapiens, UniProt P01308); assay: Oxygenation reaction of insulin; format: biochemical
T6 construct: prepared by the incubation of insulin (400 μM) in a 25 mM hydrochloric acid solution
T6 sequence (P01308 25-54 limits assumed, species assumed): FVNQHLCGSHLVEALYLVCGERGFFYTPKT
T6 sequence (P01308 90-110 limits assumed, species assumed): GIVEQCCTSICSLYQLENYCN
Text: as §4

[13] = Oxidation reaction of benzoyl methionine in glycerol/water; details: aqueous solution containing glycerol, light irradiation
Text: as §5

[14] = Fluorescence in glycerol/water mixed solvent; format: physicochemical; details: increasing glycerol concentration
[15] = test system: nucleoside phosphorylase; assay: Oxygenation ratio of aggregated to non-aggregated nucleoside phosphorylase (Example 8); format: biochemical; details: 4 μM, pH 7.4, room temperature, light 10 minutes
Procedure: (1) A phosphate buffer solution (10 mM, pH 7.4) containing nucleoside phosphorylase (0.1 mg/mL) was incubated at 60° C. The degree of thermal aggregation was monitored using a fluorescence assay kit (Protein Stability and Aggregation Assay Kit (ProFoldin, Hudson, Mo., USA)).
as §3
(§6) Each oxygenation ratio was calculated according to (Intensity ratio of oxygenation of aggregated Aβ1-42)/(Intensity ratio of oxygenation of non-aggregated Aβ1-42) and (Intensity ratio of oxygenation of aggregated nucleoside phosphorylase)/(Intensity ratio of oxygenation of non-aggregated nucleoside phosphorylase).

[16] = target: T5, Aβ1-42 oligomers; assay: Aggregability of oxygenized Aβ1-42 oligomer (Nile Red, atomic force microscopy); format: biochemical; details: compared with native
Procedure: (4) Compound (1a) (4 μM) was added to each of solutions containing two types of Aβ1-42 oligomers (0.5 μM) prepared by the incubation of Aβ1-42 (20 μM) in a phosphate buffer solution (10 mM, pH 7.4) at 0° C. and room temperature, respectively, for 24 hours, and the mixture was incubated at room temperature for 1 hour under irradiation with LED (wavelength: 500 nm). Then, each solution was incubated at 37° C., and Nile Red was added thereto, followed by the measurement of its fluorescence intensity. The sample incubated for 6 hours was also analyzed for its shape by atomic force microscopy. A non-oxygenized Aβ1-42 oligomer (native) was prepared without light irradiation.

[17] = target: α-synuclein (Homo sapiens, UniProt P37840); assay: Oxygenation reaction of α-synuclein; format: biochemical
Text: as §3

[18] = target: β2-microglobulin (Homo sapiens, UniProt P61769); assay: Oxygenation reaction of β2-microglobulin; format: biochemical
Text: as §3

[19] = target: somatostatin (Homo sapiens, UniProt P61278); assay: Selectivity of oxygenation reaction, somatostatin (Example 4); format: biochemical; parameters: unit not given here; details: compound (1a) 20 mmol %, light 1 hour, 37° C.
Text: as §1

[20] = target: T3, aggregated Aβ1-42; assay: Binding to aggregated Aβ1-42 by fluorescence assay (Example 5); details: 10 μM; Aβ1-42 incubated 0, 1, 3, 6 hours
Procedure: (2) Compound (1a) (10 μM) was added to each of solutions containing 4 types of aggregated Aβ1-42 (0.5 μM) prepared by the incubation of Aβ1-42 (20 μM) in a phosphate buffer solution (10 mM, pH 7.4) at 37° C. for 0, 1, 3, and 6 hours, respectively, followed by the measurement of the fluorescence intensity of compound (1a).

[21] = target: T2, Aβ1-42; assay: Oxygenation ratio of aggregated to non-aggregated Aβ1-42 (Example 8); format: biochemical; details: 20.0 mmol %, pH 7.4, room temperature, light 10 minutes
Procedure: as §4, §6

[22] = target: T7, desacyl ghrelin (Homo sapiens, UniProt Q9UBU3); assay: Selectivity of oxygenation reaction, desacyl ghrelin (Example 4); format: biochemical; parameters: unit not given here; details: compound (1a) 20 mmol %, light 1 hour, 37° C.
T7 sequence (Q9UBU3 24-51 limits assumed): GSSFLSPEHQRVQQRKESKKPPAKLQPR
Text: as §1

[23] = target: T8, methionine enkephalin (Homo sapiens, UniProt P01210); assay: Selectivity of oxygenation reaction, methionine enkephalin (Example 4); format: biochemical; parameters: unit not given here; details: compound (1a) 20 mmol %, light 1 hour, 37° C.
Text: as §1

[24] = target: T8, methionine enkephalin; assay: Oxidation reaction of methionine enkephalin (Example 3); format: biochemical; details: light irradiation 1.5 hours, neutral buffer, 37° C.
Text: as §1

[25] = target: T5, Aβ1-42 oligomers; assay: Oxygenation of Aβ1-42 oligomer (Example 6); format: biochemical; details: 4 μM; light 10 minutes, room temperature
Procedure: (3) Compound (1a) (4 μM) was added to each of solutions containing two types of Aβ1-42 oligomers (0.5 μM) prepared by the incubation of Aβ1-42 (20 μM) in a phosphate buffer solution (10 mM, pH 7.4) at 0° C. and room temperature, respectively, for 24 hours, and the mixture was incubated at room temperature for 10 minutes under irradiation with LED (wavelength: 500 nm). Then, the reaction was monitored with a mass spectrometer (MALDI-TOF MS). The intensity ratio of oxygenation (%) was calculated according to (Total intensity of oxygen adducts)/((Intensity of non-oxygen adduct (native))+(Total intensity of oxygen adducts)).

[26] = test system: PC12 cells; format: cell-based, rat
Procedure: The solution was added at 50 μL/well to rat adrenal medulla-derived pheochromocytoma PC12 cells (purchased from RIKEN, Japan) inoculated to a poly-D-lysine-coated 96-well plate and similarly reacted. The reaction solution in each well was diluted with 50 μL of a Dulbecco's modified eagle's medium containing 0.1% horse serum (final concentration of Aβ: 10 μM) and then incubated at 37° C. for 48 hours in a 5% CO2 atmosphere. A live cell count measurement reagent SF containing WST-8 (10 μL; purchased from Nacalai Tesque, Inc.) was added to each well, and the mixture was incubated at 37° C. for 3 hours in a 5% CO2 atmosphere. Then, the cell viability was measured from absorbance at 450 nm (reference wavelength: 655 nm).

[27] = target: T2, Aβ1-42; assay: Oxygenation of Aβ1-42 in cell culture medium; format: biochemical; details: 50 mmol %, light 500 nm, 30 minutes, medium containing 0.1% horse serum
Text: as §4

[28] = 20 μM, light 500 nm, 37° C., 30 minutes

- generation of an oxygenated form of angiotensin IV [1]: ≤ 2
- oxygenation of aggregated transthyretin [3, 28]: observed
- progression of oxygenation of non-aggregated transthyretin [3, 28]: not observed
- oxygenation of aggregated transthyretin without light irradiation ([3]; without light irradiation): not observed
- maximum absorption wavelength ([5]; 20 μM, phosphate buffer pH 7.4): 456 nm
- shift of maximum absorption wavelength to longer wavelength than thioflavin T ([5]; compared with thioflavin T): approximately 50 nm
- oxygenation of angiotensin IV [7]: ≤ 5%
- binding to Aβ1-42 oligomer (fluorescence) [9]: binds to the Aβ1-42 oligomer
- progression of oxygenation of aggregated insulin [12, 28]: observed
- progression of oxygenation of non-aggregated insulin [12, 28]: not observed
- oxygenation of aggregated insulin without light irradiation ([12]; without light irradiation): not observed
- oxygenation ratio (aggregated / non-aggregated nucleoside phosphorylase) [15]: approximately 1.2
- fibril formation of Aβ1-42 oligomer (atomic force microscopy) ([16]; incubated for 6 hours): similarly suppressed
- oxygenation of aggregated α-synuclein [17, 28]: observed
- progression of oxygenation of non-aggregated α-synuclein [17, 28]: not observed
- oxygenation of aggregated α-synuclein without light irradiation ([17]; without light irradiation): not observed
- oxygenation of aggregated β2-microglobulin [18, 28]: observed
- progression of oxygenation of non-aggregated β2-microglobulin [18, 28]: not observed
- oxygenation of aggregated β2-microglobulin without light irradiation ([18]; without light irradiation): not observed
- generation of an oxygenated form of somatostatin [19]: ≤ 2
- oxygenation ratio (aggregated Aβ1-42 / non-aggregated Aβ1-42) [21]: approximately 4.2
- generation of an oxygenated form of desacyl ghrelin [22]: ≤ 2
- generation of an oxygenated form of methionine enkephalin [23]: ≤ 2
- oxygenation of methionine enkephalin [24]: ≤ 5%
SMILES: C[n+]1c(-c2cc3c4c(c2)CCCN4CCC3)sc2cc(Br)ccc21 [1a]
- oxidation efficiency of Aβ ([2]; 100 mmol %, light 500 nm, pH 7.4, 37° C., compared with thioflavin T): remarkably high as compared with thioflavin T
- oxygenation site in Aβ1-42 ([2]; amino acid analysis and LC/MS/MS analysis): remarkably at His-13 and His-14 residues, and oxygenation also proceeds slightly at Met-35 residue
- increase of the intensity ratio of oxygenation [4]: increase of the intensity ratio of oxygenation was observed with increase in the fluorescence intensity of thioflavin T
- selectivity for aggregated over monomeric amylin [6]: selectively reacts with aggregated amylin without acting on monomeric amylin
- oxygenation of amylin ([6]; 100 mmol %, light 500 nm, pH 7.4, 37° C.): time-dependent oxygenation at His-18 residue was observed
- oxygenation of amylin in a monomeric state ([6]; pre-incubation 0 h): Only a trace amount of an oxygenated form was detected
- oxygenation of amylin aggregated in advance ([6]; pre-incubation 1 hour and 2 hours): the ratio of oxygenized amylin was elevated
- fluorescence in the presence of Aβ compared with absence of Aβ [8]: remarkably high as compared with that in the absence of Aβ
- production of singlet oxygen (decrease in furfuryl alcohol) [10]: production of singlet oxygen, with increase in the concentration of glycerol was observed
- selectivity of oxygenation with coexisting substrates [11]: highly selective oxygenation of Aβ was observed
- oxidation of benzoyl methionine [13]: oxidized in a glycerol concentration-dependent manner
- fluorescence intensity in glycerol/water mixed solvent [14]: increased with increase in the concentration of highly viscous glycerol
- increase in cross-β structure of Aβ1-42 oligomer (Nile Red fluorescence) ([16]; 4 μM, light 1 hour, then 37° C.): suppress increase in the cross-β structure of the Aβ1-42 oligomer
- binding to aggregated Aβ1-42 (fluorescence intensity) [20]: bind to the cross-β-sheet structure of aggregated Aβ1-42
- oxygenation of Aβ1-42 oligomers [25]: able to catalyze the oxygenation of both of the Aβ1-42 oligomers

- oxygenation of Aβ in a cell medium [27]: approximately 40%
SMILES: CC(C)C[C@@H](NC(=O)[C@@H](CCCCN)NC(=O)CCCCCN1CCCc2cc(-c3sc4cc(Br)ccc4[n+]3C)ccc21)C(=O)N[C@@H](C(=O)N[C@H](Cc1ccc(-c2ccccc2)cc1)C(=O)N[C@H](Cc1ccccc1)C(=O)O)C(C)C [1e] (X1-[dK][dL][dV][dBip][dF]-OH)
- phototoxicity (cell viability) [26]: no phototoxicity
